Measured values published in US20200172486A1, “PYRIDONE COMPOUNDS AND AGRICULTURAL AND HORTICULTURAL FUNGICIDES CONTAINING THE SAME AS ACTIVE INGREDIENTS” (MITSUI CHEMICALS AGRO, INC., priority 2017, published 2020).

Legend:
[1] = tested on: cabbage alternaria sooty spot fungi (Alternaia brassicicola); assay: Test Example C: cabbage alternaria sooty spot, spray test on potted cabbage plants; details: in Brassica oleracea, read-out: control value
Excerpt: Control value=100{1−(n/3)}
Test plants (cabbage variety: Shikidori) were cultivated until the cotyledons extended after the sowing of seeds.

[2] = tested on: cucumber anthracnose fungi (Colletotrichum orbiculare); assay: Test Example H: cucumber anthracnose, spray test on potted cucumber plants; details: in Cucumis sativus, read-out: control value
[3] = tested on: gray mold fungi (Botrytis cinerea); assay: Test Example B: tomato gray mold, spray test on potted tomato plants; details: in Solanum lycopersicum, read-out: control value
Excerpt: Control value=100{1−(n/3)}
Test plants (tomato variety: Oogata Fukuju) were cultivated until three to five first leaves (true leaves) appeared after the sowing of seeds.

Compound	pest or weed control at 250 ppm [1]	pest or weed control at 250 ppm [2]	pest or weed control at 250 ppm [3]
CCn1c(-c2c(F)cccc2F)c(NC(=O)OC(C)(C)C)cc(Cl)c1=O [Compound 1, tert-butyl (5-chloro-2-(2,6-difluorophenyl)-1-ethyl-6-oxo-1,6-dihydropyridin-3-yl)carbamate]	> 50%		
CCn1c(-c2c(F)cccc2F)c(N(C)C(=O)OC(C)(C)C)cc(Cl)c1=O [Compound 2, tert-butyl (5-chloro-2-(2,6-difluorophenyl)-1-ethyl-6-oxo-1,6-dihydropyridin-3-yl)(methyl)carbamate]	> 50%		
CCn1c(-c2c(F)cccc2F)c(NC)cc(Cl)c1=O [Compound 3, 3-chloro-6-(2,6-difluorophenyl)-1-ethyl-5-(methylamino)-pyridin-2(1H)-one]	> 50%	> 50%	
CCn1c(-c2c(F)cccc2F)c(N(C)C)cc(Cl)c1=O [Compound 4, 3-chloro-6-(2,6-difluorophenyl)-5-(dimethylamino)-1-ethyl-pyridin-2(1H)-one]	> 50%	> 50%	> 50%
CCN(C)c1cc(Cl)c(=O)n(CC)c1-c1c(F)cccc1F [Compound 5, 3-chloro-6-(2,6-difluorophenyl)-1-ethyl-5-(ethyl(methyl)-amino)pyridin-2(1H)-one]	> 50%	> 50%	> 50%
CCn1c(-c2c(F)cccc2F)c(N=CN2CCCC2)cc(Cl)c1=O [Compound 8, 3-chloro-6-(2,6-difluorophenyl)-1-ethyl-5-((pyrrolidin-1-yl-methylene)amino)pyridin-2(1H)-one]	> 50%	> 50%	> 50%
CCN(C(=O)OC(C)(C)C)c1cc(Cl)c(=O)n(CC)c1-c1ccc(F)cc1 [Compound 17, tert-butyl (5-chloro-1-ethyl-2-(4-fluorophenyl)-6-oxo-1,6-dihydropyridin-3-yl)(ethyl)carbamate]		> 50%	
CCNc1cc(Cl)c(=O)n(CC)c1-c1ccc(F)cc1 [Compound 20, 3-chloro-1-ethyl-5-(ethylamino)-6-(4-fluorophenyl)pyridin-2(1H)-one]		> 50%	
CCn1c(-c2ccc(F)cc2Cl)c(NC(=O)OC(C)(C)C)cc(Cl)c1=O [Compound 27, tert-butyl (5-chloro-2-(2-chloro-4-fluorophenyl)-1-ethyl-6-oxo-1,6-dihydropyridin-3-yl)carbamate]			> 50%
CCn1c(-c2ccc(F)cc2Cl)c(N)cc(Cl)c1=O [Compound 32, 5-amino-3-chloro-6-(2-chloro-4-fluorophenyl)-1-ethylpyridin-2(1H)-one]		> 50%	
CCn1c(-c2ccc(F)cc2Cl)c(N2CCCCC2)cc(Cl)c1=O [Compound 44, 3-chloro-6-(2-chloro-4-fluorophenyl)-1-ethyl-5-(piperidin-1-yl)pyridin-2(1H)-one]	> 50%	> 50%	> 50%
CCn1c(-c2c(F)cccc2F)c(N)cc(Cl)c1=O [Compound 59, 5-amino-3-chloro-6-(2,6-difluorophenyl)-1-ethylpyridin-2(1H)-one]		> 50%	
CCn1c(-c2c(F)cccc2F)c(Nc2ccccc2)cc(Cl)c1=O [compound 317, 3-chloro-6-(2,6-difluorophenyl)-1-ethyl-5-(phenylamino)pyridin-2(1H)-one]	> 50%	> 50%	> 50%
CCn1c(-c2ccc(F)cc2Cl)c(N2CCC(C)CC2)cc(Cl)c1=O [compound 365, 3-chloro-6-(2-chloro-4-fluorophenyl)-1-ethyl-5-(4-methyl-piperidin-1-yl)pyridin-2(1H)-one]	> 50%	> 50%	> 50%
CCn1c(-c2c(F)cccc2F)c(N2CCOCC2)cc(Cl)c1=O [compound 426, 3-chloro-6-(2,6-difluorophenyl)-1-ethyl-5-morpholinopyridin-2(1H)-one]	> 50%	> 50%	> 50%
